Measurements as given in ChEMBL document CHEMBL4837257, “Discovery of the Oxadiazine FRM-024: A Potent CNS-Penetrant Gamma Secretase Modulator” (J Med Chem, 2021).

Legend:
Gamma-secretase = experiment: (§1) Modulation of gamma-secretase in human H4 cells expressing human wild type APP751 assessed as reduction in amyloid beta42 level incubated overnight by ELISA; format: cell-based
[1] = Unbound clearance in human hepatocytes; format: ADME, cell-based, Hepatocyte
[2] = target: Gamma-secretase (Homo sapiens) (UniProt Q96BI3+Q9NZ42+Q8WW43+P49768+Q92542+P49810); experiment: as §1; format: cell-based; conditions: filed as modulator
[3] = Ratio of free drug concentration in mouse brain to EC90 for modulation of gamma secretase in human H4 cells expressing human wild type APP751 assessed as reduction in amyloid beta42 level incubated overnight by ELISA; format: ADME, cell-based
Mus musculus = experiment: In vivo modulation of gamma secretase in mouse assessed as reduction in Abeta42 levels in brain at 30 mg/kg, po measured after 6 hrs relative to control; format: functional; set-up: scale not given: the % may be the effect or the level left
[4] = Ratio of free drug concentration in rat brain to EC90 for modulation of gamma secretase in human H4 cells expressing human wild type APP751 assessed as reduction in amyloid beta42 level incubated overnight by ELISA; format: ADME, cell-based
Rattus norvegicus [5] = experiment: In vivo modulation of gamma secretase in rat assessed as reduction in Abeta42 levels in brain at 30 mg/kg, po measured after 6 hrs by ELISA relative to control; format: functional; set-up: scale not given: the % may be the effect or the level left
Rattus norvegicus [6] = experiment: In vivo modulation of gamma secretase in rat assessed as reduction in Abeta42 levels in CSF at 30 mg/kg, po measured after 6 hrs by ELISA relative to control; format: functional, Cerebrospinal fluid; set-up: scale not given: the % may be the effect or the level left

Row | EC50 (Gamma-secretase) [nM] | CL free [1] [mL/min/kg] | EC90 [2] [nM] | Ratio [3] | Ratio [4] | Structure (SMILES) | Activity (Mus musculus) [%] | Activity (Rattus norvegicus [5]) [%] | Activity (Rattus norvegicus [6]) [%]
1 | 5 | 20 |  |  |  | COc1nc(C2=NOC(C)C(c3ccc(Cl)c(Cl)c3)N2)ccc1-n1cnc(C)c1 (stereo not given) |  |  | 
2 | 13 | 274 |  |  |  | COc1nc(C2=NOCC(c3ccc(Cl)c(C4CC4)c3)N2)ccc1-n1cnc(C)c1 (stereo not given) |  |  | 
3 | 74 | 135 |  |  |  | COc1nc(C2=NOCC(c3ccc(C)cc3)N2)ccc1-n1cnc(C)c1 (stereo not given) |  |  | 
4 | 35 | 51 | 383 | 1.1 | 0.7 | COc1nc(C2=NOC[C@H](c3cc4ccccc4o3)N2)ccc1-n1cnc(C)c1 | 43 | 30 | 58
5 | 10 |  |  |  |  | COc1nc(C2=NOCC(c3ccc(C(F)(F)F)c(Cl)c3)N2)ccc1-n1cnc(C)c1 (stereo not given) |  |  | 
6 | 23 | 15 |  |  |  | COc1nc(C2=NOC(C)(C)C(c3ccc(Cl)cc3)N2)ccc1-n1cnc(C)c1 (stereo not given) |  |  | 
7 | 450 |  |  |  |  | COc1nc(C2=NOCC(c3ccc(C#N)cc3)N2)ccc1-n1cnc(C)c1 (stereo not given) |  |  | 
8 | 10 | 320 |  |  |  | COc1nc(C2=NOCC(c3ccc(C(C)(C)C)cc3)N2)ccc1-n1cnc(C)c1 (stereo not given) |  |  | 
9 | 23 | 29 |  |  |  | COc1nc(C2=NOCC(c3cccc(C4CC4)c3)N2)ccc1-n1cnc(C)c1 (stereo not given) |  |  | 
10 | 23 | 32 | 246 | 1.7 |  | COc1nc(C2=NOCC(c3ccc(Cl)c(F)c3)N2)ccc1-n1cnc(C)c1 (stereo not given) | 28 |  | 
11 | 8 | 6 |  |  |  | COc1nc(C2=NOCC(c3ccc(Cl)c(C(F)(F)F)c3)N2)ccc1-n1cnc(C)c1 (stereo not given) |  |  | 
12 | 34 | 12 | 407 | 1.1 |  | COc1nc(C2=NOCC(c3ccc(C(F)(F)F)cc3)N2)ccc1-n1cnc(C)c1 (stereo not given) | 36 |  | 
13 | 60 |  |  |  |  | COc1nc(C2=NOCC(c3ccc(F)cc3)N2)ccc1-n1cnc(C)c1 (stereo not given) |  |  | 
14 | 21 | 62 |  |  |  | COc1nc(C2=NOCC(c3ccc(C(F)(F)F)c(F)c3)N2)ccc1-n1cnc(C)c1 (stereo not given) |  |  | 
15 | 97 |  |  |  |  | COc1ccc(C2CON=C(c3ccc(-n4cnc(C)c4)c(OC)n3)N2)cc1 (stereo not given) |  |  | 
16 | 13 | 1147 |  |  |  | COc1nc(C2=NOCC(c3ccc(C4CC4)c(Cl)c3)N2)ccc1-n1cnc(C)c1 (stereo not given) |  |  | 
17 | 214 |  |  |  |  | COc1nc(C2=NOCC(c3cccc(C#N)c3)N2)ccc1-n1cnc(C)c1 (stereo not given) |  |  | 

Row | EC50 (Gamma-secretase) [nM] | CL free [1] [mL/min/kg] | EC90 [2] [nM] | Ratio [3] | Ratio [4] | Structure (SMILES) | Activity (Mus musculus) [%] | Activity (Rattus norvegicus [5]) [%] | Activity (Rattus norvegicus [6]) [%]
18 | 23 | 13 | 278 | 1.5 |  | COc1nc(C2=NOCC(c3ccc(F)c(Cl)c3)N2)ccc1-n1cnc(C)c1 (stereo not given) | 30 |  | 
19 | 37 | 2 | 389 | 0.6 |  | COc1nc(C2=NOCC(c3ccc(Cl)cc3)N2)ccc1-n1cnc(C)c1 (stereo not given) | 26 |  | 
20 | 197 |  |  |  |  | COc1cccc(C2CON=C(c3ccc(-n4cnc(C)c4)c(OC)n3)N2)c1 (stereo not given) |  |  | 
21 | 10 |  | 97 | 0.5 |  | COc1nc(C2=NOCC(c3ccc(Cl)c(Cl)c3)N2)ccc1-n1cnc(C)c1 (stereo not given) | 37 |  | 
22 | 19 |  | 268 | 0.7 |  | COc1nc(C2=NOCC(c3ccc(F)c(C(F)(F)F)c3)N2)ccc1-n1cnc(C)c1 (stereo not given) | 41 |  | 
23 | 8 | 1 | 97 | 2.6 | 2.4 | COc1nc(C2=NOC(C)C(c3ccc(Cl)c(F)c3)N2)ccc1-n1cnc(C)c1 (stereo not given) | 43 | 44 | 73
24 | 26 | 15 |  |  |  | COc1nc(C2=NOCC(c3cccc(Cl)c3)N2)ccc1-n1cnc(C)c1 (stereo not given) |  |  | 
25 | 75 | 5 |  |  |  | COc1nc(C2=NOC(C)(C)C(c3ccccc3)N2)ccc1-n1cnc(C)c1 (stereo not given) |  |  | 
26 | 97 | 21 |  |  |  | COc1nc(C2=NOCC(c3ccccc3)N2)ccc1-n1cnc(C)c1 (stereo in doubt; 7a) |  |  | 
27 | 14 | 19 |  |  |  | COc1nc(C2=NOC(C)C(c3cccc(Cl)c3)N2)ccc1-n1cnc(C)c1 (stereo not given) |  |  | 
28 | 10 | 70 | 127 | 1.3 |  | COc1nc(C2=NOCC(c3ccc(Cl)c(C)c3)N2)ccc1-n1cnc(C)c1 (stereo not given) | 30 |  | 
29 | 14 | 422 |  |  |  | COc1nc(C2=NOCC(c3ccc(C)c(Cl)c3)N2)ccc1-n1cnc(C)c1 (stereo not given) |  |  | 
30 | 2000 |  |  |  |  | COc1nc(C2=NOCC(c3ccccc3)N2)ccc1-n1cnc(C)c1 (stereo in doubt; 7) |  |  | 
31 | 43 |  |  |  |  | COc1nc(C2=NOCC(c3cccc(C(F)(F)F)c3)N2)ccc1-n1cnc(C)c1 (stereo not given) |  |  | 
32 | 16 | 12 | 187 | 4.5 | 0.3 | COc1nc(C2=NOC(C)C(c3ccc(Cl)cc3)N2)ccc1-n1cnc(C)c1 (stereo not given) | 47 | 41 | 84
33 | 39 | 208 |  |  |  | COc1nc(C2=NOCC(c3ccc(C4CC4)cc3)N2)ccc1-n1cnc(C)c1 (stereo not given) |  |  | 
34 | 10 | 85 | 104 | 0.8 |  | COc1nc(C2=NOCC(c3cc(Cl)cc(Cl)c3)N2)ccc1-n1cnc(C)c1 (stereo not given) | 23 |  | 
